Columns and labels:
[1] = system: KK-Ay mice; experiment: Fat weight reducing effect on obesity model mice (KK-Ay mice); type: in vivo, mouse; conditions: oral once a day for 35 days
Experimental: This test employed compound A, as well as (R)2-[3-[ [N-(5-fluorobenzoxazol2-yl)-N2-phenoxyethyl]aminomethyl]phenoxy]butyric acid (hereinafter will be referred to as “compound B”), which is an optically active substance of the compound disclosed in Example 229 in Patent Document 2. Compound A, compound B, or fenofibrate was administered to KK-Ay mice, and the effects of the compound on epididymal fat weight and mesenteric fat weight were determined through the below-described methods.
Method: Male KK-Ay mice (KK-Ay/TaJcl) were purchased from Clea Japan, Inc. (10 weeks old upon test). Each compound was orally administered to mice once a day for […]. Throughout the test period, the mice were reared in a rearing cage (light-dark cycle (light period by interior lighting: 7:00 a.m. to 7:00 p.m.), temperature: 23±3° C., humidity: 55+15%) under conditions where solid feed (CE-2, product of Oriental Yeast Co., Ltd.) and tap water were fed ad libitum.
Each of compound A, compound B, and fenofibrate was suspended in a 0.5 mass % aqueous solution of methylcellulose (Metolose (registered trademark), SM-400, product of Shin-Etsu Chemical Co., Ltd.) so that the dose of the aqueous solution was adjusted to 5 mL/kg. The resultant suspension was refrigerated in a light-shielding bottle at 4° C., and drug preparation was carried out every seven days.
(§1) Animals were divided into the following four groups (six animals per group): a first group (control), a second group (administration of compound A (1 mg/kg)), a third group (administration of compound B (3 mg/kg)), and a fourth group (administration of fenofibrate (300 mg/kg)).
(§2) Each drug was orally administered once a day (in the morning) for 35 days. A 0.5 mass % aqueous methylcellulose solution was orally administered (5 mL/kg) to the animals of the first group (control).
After completion of administration, epididymal fat and mesenteric fat were removed and weighed.
The results were represented as percent reduction (mean value) in fat weight in each compound administration group with respect to the control group.

[2] = system: rat model; conditions: cited from earlier work
[3] = system: Zucker fatty rats; experiment: Adverse events and feed intake during administration to Zucker fatty rats; type: in vivo, rat
Experimental: Rats were divided into the following four groups (six rats per group) so that body weights, plasma total cholesterol levels, and plasma triglyceride levels were averaged in the groups: a first group (control), a second group (administration of compound A (1 mg/kg)), a third group (administration of compound A (3 mg/kg)), and a fourth group (administration of fenofibrate (300 mg/kg)). A group of five Zucker lean rats was employed as a negative control group.
Each drug was orally administered once a day (in the morning) for continuous 14 days. A 0.5 mass % aqueous methylcellulose solution (2 mL/kg) was orally administered to the rats of the first group (control).
However, from 11 days to 14 days after administration, feed intake was reduced by 14% in the rats of the group of fenofibrate administration, which raised a concern about the toxicity of fenofibrate. Even under such a situation, fat weight tended to decrease only slightly.

[4] = system: FGF21; experiment: Plasma FGF21 level in Zucker fatty rats, ELISA; type: in vivo, rat; conditions: compound A 3 mg/kg, oral once a day for 14 days, day 14
Experimental: (§3) This test employed (R)-2-[3-[[N-(benzoxazol2-yl) -N-3-(4-methoxyphenoxy)propyl]aminomethyl]phenoxy]butyric acid (hereinafter will be referred to as “compound A”), which is an optically active substance of the compound disclosed in Example 14 in Patent Document 2. Compound A or fenofibrate was administered to Zucker fatty rats, and the effects of the compound on plasma triglyceride (TG) level, plasma FGF21 level, and epididymal fat weight were determined through the below-described methods.
(§4) Hyperlipidemic Zucker fatty rats with obesity due to overeating (Crlj: ZUC-Lepr Genotype: fa/fa) and Zucker lean rats without obesity (Crlj: ZUC-Lepr Genotype: fa/+ or +/+) were purchased from Charles River Laboratories Japan Inc. (eight weeks old upon test).
(§5) Throughout the test period, the rats were reared in a rearing cage (light-dark cycle (light period by interior lighting: 7:00 a.m. to 7:00 p.m.), temperature: 23+3° C., humidity: 55±15%) under conditions where solid feed (CE-2, product of Oriental Yeast Co., Ltd.) and tap water were fed ad libitum. […]
(§6) On day 14 after initiation of administration, blood was collected after four-hour fasting following administration, and plasma triglyceride level and plasma FGF21 level were measured through an enzymatic method and ELISA (Human FGF-21 ELISA Kit, product of Biovender), respectively. […]

[5] = system: Zucker fatty rats; experiment: Plasma triglyceride (TG) level in Zucker fatty rats, enzymatic method; type: in vivo, rat; conditions: compound A 3 mg/kg, oral once a day for 14 days, blood on day 14 after four-hour fasting
Experimental: as §3, §4, §5, §6

[6] = system: Zucker fatty rats; experiment: Epididymal fat weight (indicator of visceral fat weight) in Zucker fatty rats; type: in vivo, rat; conditions: compound A 3 mg/kg, oral once a day for 14 days
Experimental: as §3, §4, §5, §6

[7] = system: KK-Ay mice; conditions: mouse, in vivo, 1 mg/kg
Experimental: as §1, §2

## CC[C@@H](Oc1cccc(CN(CCOc2ccccc2)c2nc3cc(F)ccc3o2)c1)C(=O)O [Compound B, (R)2-[3-[ [N-(5-fluorobenzoxazol2-yl)-N2-phenoxyethyl]aminomethyl]phenoxy]butyric acid]
[1]; 3 mg/kg
  Mesenteric fat weight, percent reduction (mean value) with respect to the control group: 17%

## CC(C)OC(=O)C(C)(C)Oc1ccc(C(=O)c2ccc(Cl)cc2)cc1 [Fenofibrate, fenofibrate]
[1]; 300 mg/kg
  Epididymal fat weight, percent reduction (mean value) with respect to the control group: 15%
  Mesenteric fat weight, percent reduction (mean value) with respect to the control group: 13%
[2]; high dose of fenofibrate, rat model
  adverse events at high dose: adverse events (e.g., decrease in hemoglobin, or necrosis of liver cells) occur in the model
[2]; rats, dose of 30 mg/kg or more
  adverse events: various adverse events occur in the rats
[3]; fenofibrate 300 mg/kg, Zucker fatty rats, for 10 days after administration
  feed intake compared with control group: maintained equal to that in the rats of the control group
[3]; fenofibrate 300 mg/kg, Zucker fatty rats, from 11 days to 14 days after administration
  reduction of feed intake: 14%

## CC[C@@H](Oc1cccc(CN(CCCOc2ccc(OC)cc2)c2nc3ccccc3o2)c1)C(=O)O [Compound A, (R)-2-[3-[[N-(benzoxazol2-yl) -N-3-(4-methoxyphenoxy)propyl]aminomethyl]phenoxy]butyric acid]
[4]
  plasma FGF21 level versus control group: significantly (p<0.001) higher than that in the control group
[1]; 1 mg/kg
  Epididymal fat weight, percent reduction (mean value) with respect to the control group: 27%
  Mesenteric fat weight, percent reduction (mean value) with respect to the control group: 20%
[5]
  plasma triglyceride level versus control group: significantly (p<0.05) lower than that in the control group
[6]
  epididymal fat weight versus control group: considerably and statistically significantly lower than that in the control group
[3]; rat, in vivo, po
  adverse events during the period of administration: adverse events were not particularly observed
[7]
  adverse events during the period of administration: adverse events were not particularly observed
